Reference: PubChem BioAssay (NCI)
Converted amounts (≈) assume the structure as drawn.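 Cells were grown in 96-well plates and exposed to each compound for 48 hours at five concentrations; endpoints were interpolated linearly between bracketing concentrations, or set to the highest concentration if not reached. GI50: concentration for 50% inhibition of growth. At the TGI there is no net growth.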

Assays:
Experiment in all cases: DTP human tumour cell line panel, 48 h
[1] = test system: NCI-H522 lung
[2] = test system: M14 melanoma
[3] = test system: SNB-75 CNS
[4] = test system: OVCAR-4 ovarian
[5] = test system: LOX IMVI melanoma
[6] = test system: SNB-19 CNS
[7] = test system: RXF 393 renal
[8] = test system: RPMI-8226 leukemia
[9] = test system: NCI-H460 lung
[10] = test system: OVCAR-3 ovarian
[11] = test system: MOLT-4 leukemia
[12] = test system: OVCAR-8 ovarian
[13] = test system: SF-295 CNS
[14] = test system: SN12C renal
[15] = test system: MDA-MB-231 breast
[16] = test system: HS 578T breast
[17] = test system: K-562 leukemia
[18] = test system: TK-10 renal
[19] = test system: SR leukemia
[20] = test system: SK-MEL-28 melanoma
[21] = test system: MALME-3M melanoma
[22] = test system: A498 renal
[23] = test system: MCF7 breast
[24] = test system: BT-549 breast
[25] = test system: HCC-2998 colon
[26] = test system: OVCAR-5 ovarian
[27] = test system: UACC-257 melanoma
[28] = test system: CCRF-CEM leukemia
[29] = test system: CAKI-1 renal
[30] = test system: SK-MEL-2 melanoma
[31] = test system: SW-620 colon
[32] = test system: UO-31 renal
[33] = test system: HT29 colon
[34] = test system: COLO 205 colon
[35] = test system: HOP-62 NSCLC
[36] = test system: NCI/ADR-RES ovarian
[37] = test system: T-47D breast
[38] = test system: A549 NSCLC
[39] = test system: ACHN renal
[40] = test system: SK-MEL-5 melanoma
[41] = test system: NCI-H226 lung
[42] = test system: SK-OV-3 ovarian
[43] = test system: SF-268 CNS
[44] = test system: EKVX NSCLC
[45] = test system: KM12 colon
[46] = test system: HCT-15 colon
[47] = test system: HCT-116 colon
[48] = test system: NCI-H23 lung
[49] = test system: 786-0 renal
[50] = test system: HL-60(TB) leukemia
[51] = test system: HOP-92 NSCLC
[52] = test system: UACC-62 melanoma
[53] = test system: SF-539 CNS
[54] = test system: IGROV1 ovarian
[55] = test system: PC-3 prostate
[56] = test system: U251 CNS

Compound: Nc1nc(SC2CCCCC2)nc2c1ncn2C1OC(CO)C(O)C1O (configuration not stated)
- GI50 [1]: 96.6 µg/mL (≈ 253 µM)
- GI50 [2]: 14.8 µg/mL
- GI50 [3]: 69.8 µg/mL

Compound: C[C@@H](Oc1cc(-n2cnc3ccc(OC[C@@H](O)CO)cc32)sc1C(N)=O)c1ccccc1Cl
- GI50 [4]: 4.15 µM
- TGI [4]: > 25 µM
- GI50 [5]: 93.1 nM
- TGI [5]: > 25 µM
- GI50 [6]: 339 nM
- TGI [6]: > 25 µM
- GI50 [7]: 65.3 nM
- TGI [7]: 2080 nM
- GI50 [8]: 1530 nM
- TGI [8]: > 25 µM
- GI50 [9]: 227 nM
- TGI [9]: > 25 µM
- GI50 [10]: 49.1 nM
- TGI [10]: 176 nM
- GI50 [11]: 95 nM
- TGI [11]: 7.47 µM
- GI50 [12]: 109 nM
- TGI [12]: > 25 µM
- GI50 [13]: 318 nM
- TGI [13]: > 25 µM
- GI50 [14]: 1080 nM
- TGI [14]: > 25 µM
- GI50 [15]: 416 nM
- TGI [15]: > 25 µM
- GI50 [16]: 171 nM
- TGI [16]: 5.31 µM
- GI50 [17]: 80.4 nM
- TGI [17]: > 25 µM
- GI50 [18]: 894 nM
- TGI [18]: 10.7 µM
- GI50 [2]: 99.3 nM
- TGI [2]: > 25 µM
- GI50 [19]: 74.3 nM
- GI50 [20]: 229 nM
- TGI [20]: > 25 µM
- GI50 [21]: 7.14 µM
- TGI [21]: > 25 µM
- GI50 [22]: 148 nM
- TGI [22]: 1200 nM
- GI50 [23]: 25 nM
- TGI [23]: > 25 µM
- GI50 [24]: 194 nM
- TGI [24]: 11.1 µM
- GI50 [25]: 84.8 nM
- TGI [25]: > 25 µM
- GI50 [26]: 414 nM
- TGI [26]: > 25 µM
- GI50 [27]: 291 nM
- TGI [27]: > 25 µM
- GI50 [28]: 12.7 nM
- TGI [28]: 24.6 µM
- GI50 [29]: 12.2 µM
- TGI [29]: > 25 µM
- GI50 [30]: 4.76 µM
- TGI [30]: 11.1 µM
- GI50 [31]: 63.3 nM
- TGI [31]: > 25 µM
- GI50 [32]: 8.39 µM
- TGI [32]: > 25 µM
- GI50 [33]: 79.8 nM
- TGI [33]: > 25 µM
- GI50 [34]: 74.3 nM
- TGI [34]: > 25 µM
- GI50 [35]: 110 nM
- TGI [35]: > 25 µM
- GI50 [36]: 1640 nM
- TGI [36]: > 25 µM
- GI50 [37]: 1220 nM
- TGI [37]: > 25 µM
- GI50 [38]: 889 nM
- TGI [38]: > 25 µM
- GI50 [39]: 6.11 µM
- TGI [39]: > 25 µM
- GI50 [40]: 326 nM
- TGI [40]: 5.14 µM
- GI50 [41]: 2820 nM
- TGI [41]: > 25 µM
- GI50 [42]: 123 nM
- TGI [42]: > 25 µM
- GI50 [43]: 164 nM
- TGI [43]: > 25 µM
- GI50 [44]: 1750 nM
- TGI [44]: > 25 µM
- GI50 [45]: 64.1 nM
- TGI [45]: > 25 µM
- GI50 [46]: 1880 nM
- TGI [46]: > 25 µM
- GI50 [47]: 116 nM
- TGI [47]: > 25 µM
- GI50 [48]: 140 nM
- TGI [48]: > 25 µM
- GI50 [49]: 669 nM
- TGI [49]: > 25 µM
- GI50 [3]: 290 nM
- TGI [3]: 4.41 µM
- GI50 [50]: 68.4 nM
- TGI [50]: 869 nM
- GI50 [51]: 765 nM
- TGI [51]: > 16.4 µM
- GI50 [52]: 107 nM
- TGI [52]: > 25 µM
- GI50 [53]: 133 nM
- TGI [53]: > 25 µM
- GI50 [54]: 214 nM
- TGI [54]: > 25 µM
- GI50 [55]: 126 nM
- TGI [55]: > 25 µM
- GI50 [56]: 126 nM
- TGI [56]: > 25 µM
